{"source": "paper PMC11754080", "about": "(iScience, 2024)", "test_in_all_cases": "microscale thermophoresis", "assay_type_in_all_cases": "binding", "key": {"septin6": {"biological_target": "T1, septin6 (Homo sapiens, UniProt Q14141)", "T1 sequence (Q14141 2-434)": "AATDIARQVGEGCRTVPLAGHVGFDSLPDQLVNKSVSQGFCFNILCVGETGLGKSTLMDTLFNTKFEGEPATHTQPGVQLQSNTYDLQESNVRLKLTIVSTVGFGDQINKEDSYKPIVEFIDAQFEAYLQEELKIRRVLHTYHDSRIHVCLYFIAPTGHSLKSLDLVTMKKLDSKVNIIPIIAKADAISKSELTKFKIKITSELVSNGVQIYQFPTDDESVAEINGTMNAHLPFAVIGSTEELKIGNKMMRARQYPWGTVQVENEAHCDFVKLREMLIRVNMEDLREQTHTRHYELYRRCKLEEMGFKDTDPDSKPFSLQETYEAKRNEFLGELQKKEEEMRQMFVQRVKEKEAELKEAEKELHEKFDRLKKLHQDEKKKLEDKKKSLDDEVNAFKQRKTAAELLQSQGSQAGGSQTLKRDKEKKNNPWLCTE"}, "septin7": {"biological_target": "T2, septin7 (Homo sapiens, UniProt Q16181)", "T2 sequence (Q16181 2-437)": "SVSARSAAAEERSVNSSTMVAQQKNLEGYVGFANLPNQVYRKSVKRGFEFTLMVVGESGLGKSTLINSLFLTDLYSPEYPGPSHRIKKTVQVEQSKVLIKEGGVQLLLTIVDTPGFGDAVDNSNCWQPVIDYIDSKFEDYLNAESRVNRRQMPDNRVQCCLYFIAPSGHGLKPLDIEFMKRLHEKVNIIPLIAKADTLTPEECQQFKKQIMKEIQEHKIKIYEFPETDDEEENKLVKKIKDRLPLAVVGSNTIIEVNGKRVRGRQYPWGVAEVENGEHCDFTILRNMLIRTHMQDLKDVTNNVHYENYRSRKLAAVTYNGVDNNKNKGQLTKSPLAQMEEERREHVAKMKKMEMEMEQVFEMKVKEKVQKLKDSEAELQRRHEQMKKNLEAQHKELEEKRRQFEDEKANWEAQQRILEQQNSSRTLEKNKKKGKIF"}, "septin2": {"biological_target": "T3, septin2 (Homo sapiens, UniProt Q15019)", "T3 sequence (Q15019 1-361)": "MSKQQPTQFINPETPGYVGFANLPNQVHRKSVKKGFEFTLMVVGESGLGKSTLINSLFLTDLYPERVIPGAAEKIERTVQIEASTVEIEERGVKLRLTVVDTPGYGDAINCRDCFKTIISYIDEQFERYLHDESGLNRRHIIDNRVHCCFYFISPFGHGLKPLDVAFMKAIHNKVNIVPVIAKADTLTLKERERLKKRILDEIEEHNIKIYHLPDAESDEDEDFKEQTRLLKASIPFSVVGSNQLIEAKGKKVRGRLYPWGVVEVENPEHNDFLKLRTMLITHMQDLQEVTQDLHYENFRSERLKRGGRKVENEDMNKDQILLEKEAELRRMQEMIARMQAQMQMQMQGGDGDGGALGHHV"}}}
{"smiles": "OC1(c2ccc(Cl)c(C(F)(F)F)c2)CCN(CCCC(c2ccc(F)cc2)c2ccc(F)cc2)CC1", "note": "[PFD, penfluridol]", "values": [{"measurement": "Kd", "setting": "septin6", "result": 43.1, "unit": "µM"}, {"measurement": "Kd", "setting": "septin7", "result": 0.98, "unit": "µM"}, {"measurement": "Kd", "setting": "septin2", "result": 54.8, "unit": "µM"}]}
